According to US9249117B2, “Use of compounds from Antrodia camphorata in manufacturing medicaments for treating kidney diseases” (priority 2014, dated 2016):

Key:
[1] = tested on: ROS in mesangial cells; assay: Determination of reactive oxygen species (ROS) in LPS-treated mesangial cells; type: cell-based, Mouse; details: in 5 minutes; for inhibition at 0.012 µg/mL / inhibition at 0.048 µg/mL: Mus musculus, Mesangial cell, 5 min, read-out: Inhibiting ROS %; for effect for inhibiting ROS / anti-oxidative effect (in words): 0.012 μg/ml and 0.048 μg/ml
Procedure: Determination of ROS was by detecting the intensity of fluorescence from an oxide of 2′,7′-dichlorofluorescein diacetate (2′,7′-dichlorofluorescein diacetate). The mesangial cells was treated as compounds which are to be measured, and 2′,7′-dichlorofluorescein diacetate (2 μM) was added to react for 30 minutes. After reaction for 30 minutes, LPS was added at specific time. Then, the signals were determined by […] (Bio-Rad Laboratories, Inc) with exciting wavelength of 485 nm and emitting wavelength of 530 nm.
Because ROS was inseparably related to kidney diseases, the results for determination of ROS in the aforementioned cells were shown in FIG. 2A-2F.

[2] = tested on: MCP-1; assay: Anti-inflammatory response: MCP-1 in supernatant by ELISA; type: cell-based, Mouse; details: for anti-inflammation (MCP-1) inhibition effect (in words): 0.012 μg/ml and 0.048 μg/ml; for inhibition at 0.012 µg/mL / inhibition at 0.048 µg/mL: Mus musculus, read-out: Inhibited MCP-1 level
Procedure: It is known that MCP1 plays an important role in interstitial inflammation, tubular atrophy, and kidney fibrosis. Therefore, by performing the protein test, the effects of Antrodia camphorata about anti-inflammation for the cells in kidney can be determined.
According to the manual, MCP-1 in the supernatant was detected by ELISA kits (Biosciences, Los Angeles, Calif., USA) and was determined by ELISA reader (Bio-Tek) (for wavelength absorbance of 450 nm). * * * indicated as p<0.005, NS indicated.

[3] = tested on: mesangial cells (Mouse MC line CRL-1927); assay: MTT cell viability assay using mesangial cells; details: all chosen concentrations (0.01~200 μg/ml), 48 hours, FIGS. 1A-1F
Procedure: Here, Mouse MC line CRL-1927 was used in order to proceed the subsequent experiments. The cell line was derived from American Type Culture Collection (Rockville, Md., USA), and then was operated regular culture with a culture medium consisted of Dulbecco's modified Eagle's medium and Ham's F-12 medium with 3:1 ratio, and adding 5% fetal bovine serum and 14 mM HEPES.
The aforementioned cell line was cultured in the culture medium for 24 hours. The cells after hyperplasia were washed once with PBS, and treated with 1 time trypsin-EDTA, and followed by centrifuging at 1,200 rpm for 5 minutes, and the cells sedimented to form the cell pellet and the supernatant was removed. Then, 10 ml fresh medium was added, and the cells were re-suspended by shaking slightly. The cells were placed in 96-well microplate. When they were tested, 0.01˜200 μg/ml compounds from Antrodia camphorata were added into each of the well. The cells were incubated at 37° C. with 5% CO2 for 48 hours. Subsequently, 5 mg/ml 3-(4,5-dimethylthiazol-2-yl)-2,5-diphenyltetrazolium bromide (MTT) were added into the each well to react in the dark environment for 2 hours. Furthermore, in order to calculate the survival rate of the cells, the absorbance at wavelength of 570 nm was determined by enzyme-linked immunosorbent assay, and then the needed concentration for the half growth inhibition ratio (IC50) was calculated. […]

Row | Compound | inhibition at 0.012 µg/mL ([1]; 0.012 μg/ml) [%] | inhibition at 0.048 µg/mL ([1]; 0.048 μg/ml) [%] | anti-inflammation (MCP-1) inhibition effect (in words) [2] | inhibition at 0.012 µg/mL ([2]; 0.012 μg/ml) [%] | inhibition at 0.048 µg/mL ([2]; 0.048 μg/ml) [%] | effect for inhibiting ROS / anti-oxidative effect (in words) [1] | Inhibiting ROS % ([1]; 0.012 μg/ml) [%] | Inhibiting ROS % ([1]; 0.048 μg/ml) [%] | Inhibited MCP-1 level ([2]; 0.012 μg/ml) [%] | Inhibited MCP-1 level ([2]; 0.048 μg/ml) [%] | effect on mesangial cell growth (MTT cell viability) [3]
1 | COC1=C(OC)C(O)C(CC=C(C)CCC=C(C)CC(O)C=C(C)C)C(C)C1=O (centres unmarked) [Antrocamol LT1, 4-hydroxy-5-[9-hydroxy-3,7,11-trimethyldodeca-2,6,10-trienyl]-2,3-dimethoxy-6-met hyl-cyclohex-2-enone] | 3 | 14 | did not have the effects of inhibition | 0 | 0 | – | – | – | – | – | –
2 | COC1=C(OC)C(OC(C)=O)C(CC=C(C)CCC=C(C)CC(O)C=C(C)C)C(C)C1=O (centres unmarked) [Antrocamol LT2, 4-acetoxy-5-[9-hydroxy-3,7,11-trimethyldodeca-2,6,10-trienyl]-2,3-dimethoxy-6-met hyl-cyclohex-2-enone] | 0 | 0 | did not have the effects of inhibition | 0 | 0 | – | – | – | – | – | –
3 | 4-acetyl-Antroquinonol B | – | – | – | – | – | exhibited anti-oxidation for nephritis cells | 5 | 12 | 0 | 0 | did not affect mesangial cells to grow
4 | Antroquinonol B | – | – | did not have the effects of inhibition | – | – | exhibited anti-oxidation for nephritis cells | 0 | 12.5 | 0 | 0 | did not affect mesangial cells to grow
5 | COC1=C(OC)[C@H](O)[C@H](C/C=C(\C)CC/C=C(\C)C/C=C/C(C)(C)O)[C@@H](C)C1=O [Antrocamol LT3, (4R,5R,6R)-4-hydroxy-5-[(2E,6E,9E)-11-hydroxy-3,7,11-trimethyldodeca-2,6,9-trienyl]-2,3-dimethoxy-6-methylcyclohex-2-enone] | 0 | 0 | better effect for inhibiting MCP-1 level | 0 | 40.2 | did not have the inhibiting effect | – | – | – | – | –
6 | COC1=C(OC)[C@H](O)[C@H](C/C=C(\C)CC/C=C(\C)CCC=C(C)C)[C@@H](C)C1=O [Antroquinonol, reference compound] | 0 | 0 | did not have the effects of inhibition | 0 | 0 | did not have the inhibiting effect | – | – | – | – | –
